Results taken from BindingDB's records for doi:10.1021/jm0603926 (Taigen Biotechnology, 2006).

Target: Replicase polyprotein 1ab (Severe acute respiratory syndrome coronavirus, UniProt P0C6X7)
Test: 3CL Protease Enzyme Assays
Settings: pH 7.5; 25 °C
Protocol: The effects of compound on enzyme activity were measured by using peptide cleavage assay. Cleavage products were resolved and analyzed with a reverse-phase HPLC. Quantification of peak areas was used to determine the extent of substrate conversion. Ki was calculated using the equation of Cheng and Prusoff.

## CCOC(=O)/C=C/[C@H](C[C@@H]1CCNC1=O)NC(=O)[C@H](Cc1ccc(F)cc1)NC(=O)[C@@H](NC(=O)c1cc(C)on1)C(C)C [AG7088 analogue 2a]
  Ki: > 10000 nM

## C[C@H](OC(C)(C)C)[C@H](NC(=O)OCc1ccccc1)C(=O)N[C@@H](CC1CCCCC1)C(=O)N[C@H](C=O)C[C@@H]1CCNC1=O [benzyl N-[(1S,2S)-2-(tert-butoxy)-1-{[(1S)-2-cyclohexyl-1-{[(2S)-1-oxo-3-[(3S)-2-oxopyrrolidin-3-yl]propan-2-yl]carbamoyl}ethyl]carbamoyl}propyl]carbamate]
  Ki: 53 nM
